Experimental data from US20230046018A1, “BIARYL COMPOUND AS PAN-RAF KINASE INHIBITOR” (MEDSHINE DISCOVERY INC., priority 2019, published 2023).
Read-outs that look alike come from different tables or passages of the source.

What was measured:
[1] = test system: HCT-116(Kras^G13D); assay: HCT-116 (Kras^G13D) antiproliferative activity (CellTiter Glo); format: cell-based; conditions: HCT-116 (Kras^G13D) cells, three days
Method: Experiments for HCT-116(Kras^G13D) Antiproliferative Activity
(1) cell medium: 89% Mc'Coy 5A, 10% fetal bovine serum and 1% penicillin-streptomycin;
(2) the original medium in the cell culture flask was removed; the cells were digested with trypsin and then counted; and the cell suspension was diluted with the medium to a cell density of 2.5×10^4 cells per milliliter required for plating;
(§1) (3) 100 μL of the medium was added to the outermost circle of wells of the cell plate; 80 μL of the cell suspension was added to other wells; and the plate was cultured overnight in a 37° C. incubator with 5% CO2.
the compounds were subjected to a gradient dilution and then supplemented; and the cell plate was put back into the incubator for three days.
(§2) adding CTG and reading the plate involve adding 20 μL of CellTiterGlo to each well of the cell plate, shaking the plate for 10 min in the dark, and reading the plate on Victor Nivo.

[2] = molecular target: T1, cRAF protein (Homo sapiens, UniProt P04049); assay: c-RAF enzyme inhibitory activity (ADP-Glo, MEK1 substrate); format: biochemical; conditions: MEK1 and ATP substrate
T1 construct: purchased Creative BioMart RAF1-416H
T1 sequence (P04049 whole entry): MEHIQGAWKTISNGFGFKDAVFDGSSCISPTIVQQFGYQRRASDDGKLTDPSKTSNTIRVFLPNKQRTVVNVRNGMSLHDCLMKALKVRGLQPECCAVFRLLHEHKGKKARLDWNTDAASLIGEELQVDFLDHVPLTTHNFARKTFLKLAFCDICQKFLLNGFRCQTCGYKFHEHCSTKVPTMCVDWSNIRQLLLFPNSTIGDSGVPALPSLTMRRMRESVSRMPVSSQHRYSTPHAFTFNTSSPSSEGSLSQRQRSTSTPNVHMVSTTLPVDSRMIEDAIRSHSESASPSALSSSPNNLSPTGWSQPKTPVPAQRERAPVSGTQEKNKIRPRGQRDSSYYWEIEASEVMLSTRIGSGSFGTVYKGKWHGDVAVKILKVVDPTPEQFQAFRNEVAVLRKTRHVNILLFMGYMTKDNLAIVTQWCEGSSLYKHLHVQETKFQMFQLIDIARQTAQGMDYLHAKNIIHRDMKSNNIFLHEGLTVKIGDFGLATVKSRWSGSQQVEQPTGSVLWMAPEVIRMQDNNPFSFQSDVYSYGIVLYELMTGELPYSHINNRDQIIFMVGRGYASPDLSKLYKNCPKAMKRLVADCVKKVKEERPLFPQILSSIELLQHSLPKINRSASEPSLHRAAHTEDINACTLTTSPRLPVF
Method: Experiments for c-RAF Enzyme Inhibitory Activity
the compounds to be tested and reference compounds were diluted to 100 μM with DMSO, and the compounds were further subjected to a 3-fold gradient dilution using Echo to obtain target plates with 11 concentration gradients.
1) buffer formulation: 50 mM Tris-HCl (pH 7.4), 3.5 mM MgCl2, 150 mM NaCl, 1 mM DTT, 0.02% Triton X-100, H2O;
7) after 1 hour, the plate was read on Envision.

[3] = test system: Ca1u-6 (Kras^Q61K); assay: Ca1u-6 (Kras^Q61K) antiproliferative activity (CellTiter Glo); format: cell-based, human; conditions: Ca1u-6 (Kras^Q61K) cells, three days, read-out: Calu-6 anti-proliferative activity IC50
Method: Experiments for Ca1u-6 (Kras^Q61K) Antiproliferative Activity
(1) cell medium: 89% EMEM, 10% fetal bovine serum and 1% penicillin-streptomycin;
(2) the original medium in the cell culture flask was removed; the cells were digested with trypsin and then counted; and the cell suspension was diluted with the medium to a cell density of 3.75×10^4 cells per milliliter required for plating;
as §1
the compounds were subjected to a gradient dilution and then supplemented using Echo; and the cell plate was put back into the incubator for three days.
as §2

[4] = test system: ERK phosphorylation in HCT116(Kras^G13D); assay: HCT116 (Kras^G13D) ERK phosphorylation inhibition (HTRF); format: cell-based, human; conditions: 1 hour with compound, read-out: HCT-116 ERK phosphorylation inhibitory activity IC50
Method: Experiments for HCT116(Kras^G13D) ERK Phosphorylation Inhibition
(§3) 1) cells were resuscitated, cultured to a logarithmic growth phase, then digested with trypsin and seeded in a 96-well plate, and the plate was incubated overnight in an incubator;
(§4) 2) serial gradients of compounds dissolved in DMSO were added to the 96-well plate, which was then put back into the incubator for 1 hour;
3) the cell plate was taken out; the supernatant was removed; and the cells were incubated and lysed by adding cell lysates (containing 1% blocking peptide) for 30 minutes at room temperature;
(§5) 4) 16 μL of cell lysates per well was transferred to the HTRF plate, and then 4 μL of the mixed antibody solution formulated thereby was added;
(§6) 5) after overnight incubation, the plate was read on Envision; the fitted curves were obtained according to ratio (the ratio of Ex665/Ex615 fluorescence intensity); and EC50 was calculated with the four-parameter fitting formula, i.e., Y=Bottom+(Top−Bottom)/(1+10^((LogEC50−X)*Hill Slope)) on Graphpad.

[5] = test system: ERK phosphorylation in Ca1u-6(Kras^Q61K); assay: Ca1u-6 (Kras^Q61K) ERK phosphorylation inhibition (HTRF); format: cell-based, human; conditions: 1 hour with compound, read-out: Calu-6 ERK phosphorylation inhibitory activity IC50
Method: Experiments for Ca1u-6(Kras^Q61K) ERK Phosphorylation Inhibition
as §3, §4
3) the cell plate was taken out; and the cells were incubated and lysed by adding cell lysates (containing 1% blocking peptide) for 30 minutes at room temperature;
as §5, §6

[6] = In vivo pharmacokinetics in mice; conditions: mouse, plasma, female CD-1 mice; for AUC: read-out: Curve area AUC
Excerpt: Experiments for In Vivo Pharmacokinetics in Mice
2) Experimental animals: 4 female CD-1 mice, which were divided into 2 groups, 2 mice in each group;
3) Drug formulation: An appropriate amount of the drug was weighed and dissolved in an aqueous solution of solutol (5% by volume), DMSO (5% by volume) and PEG-300 (25% by volume) for injection administration. An appropriate amount of the drug was weighed and dispersed in a 5% solutol aqueous solution (80% by volume), and then PEG-400 (20% by volume) was added; the mixture was mixed well and used for intragastric administration. Solutol is polyethylene glycol-15-hydroxystearate.
The animals in the first group were administered the compound at a dose of 2 mg/kg at a concentration of 1 mg/mL by intravenous administration. Plasma samples were collected from the animals at 0.117, 0.333, 1, 2, 4, 7 and 24 hours after administration. The animals in the second group were administered the compound at a dose of 100 mg/kg at a concentration of 10 mg/mL by intragastric administration. Plasma samples were collected from the animals at 0.0833, 0.25, 0.5, 1, 2, 4, 6, 8 and 24 hours after administration. The drug concentration at each point was determined by the LC-MS/MS method, and kinetic parameters of the tested drug were as follows: […]

[7] = test system: human lung cancer Ca1u-6 subcutaneous xenograft tumor; assay: In vivo pharmacodynamics, human lung cancer Ca1u-6 subcutaneous xenograft tumor BALB/c nude mouse model; conditions: 100 mg/kg PO QD × 21 days, Ca1u-6 xenograft, BALB/c nude mice
Method: When the cell saturation was 80% to 90%, and the number reached the requirement, the cells were collected, counted and inoculated.
Tumor diameter was measured twice a week with a vernier caliper.
TGI (%) reflected the tumor growth inhibition rate.

[8] = Homo sapiens, HCT-116, 1 h, HCT116 (Kras^G13D) cells
[9] = Homo sapiens, Calu-6, 1 h, Ca1u-6 (Kras^Q61K) cells
[10] = Homo sapiens, HCT-116, HCT116 (Kras^G13D) cells

## Cc1ccc(NC(=O)c2ccnc(C(F)(F)F)c2)cc1-c1cc(OCCO)nc(C23CCOCC2C3)c1 (single isomer, unassigned) [Compound 1A]
[1]; Homo sapiens, 72 h
  IC50: 600 nM
[2]
  IC50: 2.5 nM
[3]; Homo sapiens, Calu-6, 72 h
  IC50: 1200 nM
[4]; [8]
  IC50: 140 nM
[5]; [9]
  IC50: 220 nM

## Cc1ccc(NC(=O)c2ccnc(C(F)(F)F)c2)cc1-c1cc(OCCO)nc(C23CCOCC2(C#N)C3)c1 (stereo not drawn) [Compound 14]
[1]; Homo sapiens, 72 h
  IC50: 400 nM
[3]; Homo sapiens, Calu-6, 72 h
  IC50: 3500 nM
[5]; [9]
  IC50: 330 nM

## Cc1ccc(NC(=O)c2ccnc(C(F)(F)F)c2)cc1-c1cc(OC[C@H](O)CO)nc(C23CCOCC2C3)c1 (stereo partly drawn) [Compound 9]
[1]; Homo sapiens, 72 h
  IC50: 800 nM
[2]
  IC50: 1.2 nM
[3]; Homo sapiens, Calu-6, 72 h
  IC50: 6400 nM
[5]; [9]
  IC50: 180 nM

## Cc1ccc(NC(=O)c2ccnc(C(F)(F)F)c2)cc1-c1cc(OCCO)nc([C@]23COC[C@H]2C3)c1 [Compound 16B]
[1]; Homo sapiens, 72 h
  IC50: 1100 nM
[6]; oral, intragastric 100 mg/kg versus intravenous 2 mg/kg, read-out: Bioavailability F
  bioavailability: 131%
[6]; po, intragastric administration 100 mg/kg, read-out: Maximum concentration time Tmax
  Tmax: 1 h
[6]; intravenous administration 2 mg/kg, read-out: Clearance rate Cl
  clearance: 25.8 mL/min/kg
[6]; intravenous administration 2 mg/kg, read-out: Distribution volume Vd
  Vd: 2.75 L/kg
[6]; intravenous administration 2 mg/kg, read-out: Half-life T1/2 (converted)
  half-life: 1.43 h
[6]; po, intragastric administration 100 mg/kg
  AUC: 178 µM·h
[6]; po, intragastric administration 100 mg/kg, read-out: Maximum concentration Cmax
  Cmax: 25 µM
[6]; intravenous administration 2 mg/kg
  AUC: 2.61 µM·h
[6]; intravenous administration 2 mg/kg, read-out: Initial concentration C0
  C0: 2.01 µM
[3]; Homo sapiens, Calu-6, 72 h
  IC50: 600 nM
[7]
  relative tumor proliferation rate T/C: 11.4%
  tumor growth inhibition rate TGI: 99.1%
[4]; [10]
  IC50: 180 nM
[5]; Homo sapiens, Calu-6, Ca1u-6 (Kras^Q61K) cells
  IC50: 490 nM

## Cc1ccc(NC(=O)c2ccnc(C(F)(F)F)c2)cc1-c1cc(C23CCOCC2C3)cc(OCCO)n1 (stereo not drawn) [Compound 8]
[1]; Homo sapiens, 72 h
  IC50: 1100 nM
[2]
  IC50: 1.1 nM
[3]; Homo sapiens, Calu-6, 72 h
  IC50: 1000 nM
[5]; [9]
  IC50: 350 nM

## COC[C@@H](O)COc1cc(-c2cc(NC(=O)c3ccnc(C(F)(F)F)c3)ccc2C)cc(C23CCOCC2C3)n1 (stereo partly drawn) [Compound 10]
[1]; Homo sapiens, 72 h
  IC50: 5300 nM
[2]
  IC50: 2.5 nM
[3]; Homo sapiens, Calu-6, 72 h
  IC50: 7100 nM

## Cc1ccc(NC(=O)c2ccnc(C(F)F)c2)cc1-c1cc(OCCO)nc(C23CCOCC2C3)c1 (stereo not drawn) [Compound 5]
[1]; Homo sapiens, 72 h
  IC50: 2600 nM
[2]
  IC50: 1 nM
[3]; Homo sapiens, Calu-6, 72 h
  IC50: 4600 nM
[5]; [9]
  IC50: 170 nM

## Cc1ccc(NC(=O)c2ccnc(C(F)(F)F)c2)cc1-c1cc(N2CC(O)C2)nc(C23CCOCC2C3)c1 (stereo not drawn) [Compound 13]
[1]; Homo sapiens, 72 h
  IC50: 200 nM
[3]; Homo sapiens, Calu-6, 72 h
  IC50: 200 nM
[5]; [9]
  IC50: 390 nM

## Cc1ccc(NC(=O)c2ccnc(C(F)(F)F)c2)cc1-c1cc(OCCO)nc(C23CCOCC2C3(F)F)c1 (stereo not drawn) [Compound 11]
[1]; Homo sapiens, 72 h
  IC50: 800 nM
[2]
  IC50: 2.8 nM
[3]; Homo sapiens, Calu-6, 72 h
  IC50: 1100 nM
[5]; [9]
  IC50: 430 nM

## Cc1ccc(NC(=O)c2ccnc(C(F)(F)F)c2)cc1-c1cc(OCCO)nc(C23COCC2C3)c1 (stereo not drawn) [Compound 16]
[1]; Homo sapiens, 72 h
  IC50: 2200 nM
[3]; Homo sapiens, Calu-6, 72 h
  IC50: 1300 nM
[4]; [10]
  IC50: 160 nM

## Cc1ccc(NC(=O)c2ccnc(C(F)(F)F)c2)cc1-c1cc(OCCO)nc(C23CCOCC2C3)c1 (single isomer, unassigned) [Compound 1B]
[1]
  IC50: 600 nM
[2]
  IC50: 2 nM
[3]
  IC50: 960 nM
[4]; HCT116 (Kras^G13D) cells
  IC50: 220 nM
[5]; Ca1u-6 (Kras^Q61K) cells
  IC50: 250 nM

## Cc1ccc(NC(=O)c2ccnc(C(C)(F)F)c2)cc1-c1cc(OCCO)nc(C23CCOCC2C3)c1 (stereo not drawn) [Compound 6]
[1]; Homo sapiens, 72 h
  IC50: 600 nM
[2]
  IC50: 0.9 nM
[3]; Homo sapiens, Calu-6, 72 h
  IC50: 1000 nM
[5]; [9]
  IC50: 220 nM

## Cc1ccc(NC(=O)c2ccnc(C(F)(F)F)c2)cc1-c1cc(NCCO)nc(C23CCOCC2C3)c1 (stereo not drawn) [Compound 3]
[1]; Homo sapiens, 72 h
  IC50: 2300 nM
[2]
  IC50: 1.7 nM
[3]; Homo sapiens, Calu-6, 72 h
  IC50: 1400 nM
[4]; [8]
  IC50: 190 nM

## Cc1ccc(NC(=O)c2ccnc(C(F)(F)F)c2)cc1-c1cc(SCCO)nc(C23CCOCC2C3)c1 (stereo not drawn) [Compound 7]
[2]
  IC50: 2.5 nM

## Cc1ccc(NC(=O)c2ccnc(C(F)(F)F)c2)cc1-c1cc(OCC(C)(C)O)nc(C23CCOCC2C3)c1 (stereo not drawn) [Compound 15]
[1]; Homo sapiens, 72 h
  IC50: 900 nM
[3]; Homo sapiens, Calu-6, 72 h
  IC50: 4700 nM
[5]; [9]
  IC50: 330 nM

## Cc1ccc(NC(=O)c2ccnc(C(F)(F)F)c2)cc1-c1cc(N(C)CCO)nc(C23CCOCC2C3)c1 (stereo not drawn) [Compound 2]
[1]; Homo sapiens, 72 h
  IC50: 2300 nM
[2]
  IC50: 2.7 nM
[3]; Homo sapiens, Calu-6, 72 h
  IC50: 1100 nM
[4]; [8]
  IC50: 210 nM
